From US20040053355A1, “Modular approach to on-line synthesis, drug discovery and biochemical transformations using immobilized enzyme reactors” (priority 2000, published 2004)
Structures can show the parent of a compound that is named as a salt. Where two headings read alike, the source gives them in different places.

Columns and labels:
[1] = biological target: T1, PNMT-Glut-P stationary phase (PNMT-SP) (Bos taurus, UniProt P10938); experiment: PNMT immobilized on Glut-P stationary phase (PNMT-SP), batch assay; format: biochemical, bovine
T1 sequence (P10938 1-283): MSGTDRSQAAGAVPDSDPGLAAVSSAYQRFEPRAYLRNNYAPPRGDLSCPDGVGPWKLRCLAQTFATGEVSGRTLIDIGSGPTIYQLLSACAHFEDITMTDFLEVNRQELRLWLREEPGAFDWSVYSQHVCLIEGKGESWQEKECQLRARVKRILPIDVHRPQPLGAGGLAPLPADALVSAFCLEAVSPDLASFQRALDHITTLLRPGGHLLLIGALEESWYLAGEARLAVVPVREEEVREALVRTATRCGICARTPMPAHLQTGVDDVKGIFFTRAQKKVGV
Description: (§1) The activity of phenylethanolamine N-methyltransferase was assayed as follows: [final concentration] To 500 μL of enzyme solution [163 μg] was added 50 μL S-adenosyl-L-methionine [20 μM] and the solution was vortexed for 1 min. The reaction was started by addition of the 50 μL substrate [1 mM]. The reaction medium was incubated for 10 min at 37° C. in a shaking bath. The resulting solution was centrifuged at 3000×g and the supernatant were directly injected onto the HPLC under the above mentioned conditions.
Immobilization onto the Glut-P Liquid Chromatographic stationary phase was accomplished in the following manner: (1) the stationary phase (10-100 mg) was washed three times with 0.1 M sodium phosphate buffer adjusted to pH 8.30 with 5M NaOH. The washing was carried out by adding 1 ml of buffer to the stationary phase, the suspension was mixed for 1 min, centrifuged at 3000×g for 10 min, and the supernatant decanted. (2) The enzyme solution [98 μg in 0.6 ml sodium phosphate buffer (0.1M, pH 8.30)] was added to the packing material, the mixture was mixed gently for 5 min and then placed in a rotator/stirrer bath for 18 h at ambient temperature. (3) At the end of 18 h, the suspension was centrifuged, the supernatant decanted and the packing material was washed three additional times with buffer. (4) The amount of enzyme immobilized on the packing material was determined by measuring the amount of residual enzyme in the supernatant using the BioRad Protein Assay. The difference in the absorbance reading before immobilization and the combined absorbances of the washings after immobilization determined the amount of enzyme bound on the packing material.

[2] = biological target: T2, phenylethanolamine N-methyltransferase (PNMT), non-immobilized (Bos taurus, UniProt P10938); experiment: Non-immobilized PNMT activity assay, batch incubation with HPLC-fluorescence analysis; format: biochemical, bovine
T2 sequence (P10938 1-283): T1 sequence (P10938 1-283)
Description: A mobile phase consisting of potassium phosphate buffer (50 mM) adjusted to pH 2.0 with trifluoroacetic acid was utilized to achieve the desired chromatographic separation of the products from the substrates. The solutes were quantitated using fluorescence detection with excitation at λ=266 nm and emission at λ=380 nm. A flow rate of 0.7 ml/min and ambient temperature were used throughout the study.
as §1

[3] = biological target: T1, PNMT-Glut-P stationary phase (PNMT-SP); settings: Table 7, *Data obtained from reference 14; cited from earlier work
[4] = biological target: T3, PNMT-IMER (immobilized phenylethanolamine N-methyltransferase) (Bos taurus, UniProt P10938); experiment: On-line PNMT immobilized enzyme reactor (PNMT-IMER) HPLC system; format: biochemical, bovine; settings: for IC50: n = 2, read-out: IC 50 PNMT-IMER
T3 sequence (P10938 1-283): T1 sequence (P10938 1-283)
Excerpt: PNMT immobilized on the Glut-P stationary phase was packed into a lcm×10 mm guard (Regis Technologies). The guard was put into a holder and the column was placed onto the chromatographic system. The PNMT-IMER was washed with phosphate buffer [0.1M, pH 8.3]. The eluent was collected in order to determine if any of the enzyme was being washed off the column. The Biorad assay was utilized to measure the amount of non-immobilized enzyme. When the column was not in use it was washed with phosphate buffer [0.1M, pH 8.3] and stored at 4° C.
The pump on system 2 is stopped. 100 μl of a substrate/cofactor mixture is loaded into the injector (i) and the value is switched to the inject position at the same time the switching valve (SV) is switched such that the substrate/product are eluted from the PNMT-IMER and concentrated onto the analytical columns of System 2 for the specified contact time. When the specific contact time elapses the SV is switched back to the original position and the pump on system 2 is started. The unreacted substrate and product formed are separated on the coupled analytical columns.
The enzymatic activity on the PNMT-IMER was determined by quantification of the amount of product formed with a given substrate. The temperature of the PNMT-IMER unless otherwise stated was kept at 37° C. with a column heater. Stock solutions of normetanephrine were prepared in water. The substrate concentrations examined ranged from 0.15-10 mM and that of the cofactor, S-adenosyl-L-methionine, ranged from 5-100 μM.
Enzymatic activity was examined carrying out injections of a series of substrate/cofactor mixtures. The mixtures were injected onto the IMER at a flow rate of 0.2 ml/min for a contact time of 20 min. The kinetic parameters were determined by drawing Lineweaver-Burke plots utilizing Microsoft Excel. Results are expressed as mean±standard error of the mean (SEM).
The effect of known inhibitors, S-adenosylhomocysteine and methyldopa on the enzymatic activity of the PNMT-IMER was also examined. The inhibition of the PNMT-IMER was carried out using injections of a series of substrate/cofactor/inhibitor mixtures.

[5] = immobilized PNMT, read-out: Ki PNMT-SP
[6] = non-immobilized PNMT, read-out: Ki PNMT
[7] = 0.2 ml/min, contact time 20 min, 37° C., n = 2

For `Cl.NCc1ccccc1` [Benzylamine, benzylamine hydrochloride], the “inhibition of PNMT activity, immobilized PNMT compared to the non-immobilized PNMT” value ([1]; FIG. 8) was “three times higher”, the “concentration as low as which the enzyme is inhibited” value ([1]; immobilized PNMT) was 100 µM and the Ki [1, 5] was 690 ± 100 µM. For the same compound, the “concentration as low as which the enzyme is inhibited” value ([2]; non-immobilized PNMT) was 100 µM and the Ki [2, 6] was 220 ± 110 µM.

For `C[S+](CC[C@H](N)C(=O)O)C[C@H]1O[C@@H](n2cnc3c(N)ncnc32)[C@H](O)[C@@H]1O` (stereo partly drawn) [SAM, S-adenosyl-L-methionine], the Km [3] is given as 10.6 µM, the Vmax [3] is given as 0.254 µmol/mg/min and the Km ([1]; PNMT-SP, Table 5) is given as 10.6 µM. The Vmax ([1]; PNMT-SP, Table 5) was 0.654 µmol/mg/min, the Km ([2]; non-immobilized PNMT) was 14.2 µM and the Vmax ([2]; non-immobilized PNMT) was 1.249 µmol/mg/min. The Km [4, 7] was 7.31 µM and the Vmax [4, 7] was 0.424 µmol/mg/min.

For `COc1cc(C(O)CN)ccc1O` (racemic) [Normetanephrine, DL-normetanephrine hydrochloride], the Km [3] is given as 152 µM, the Vmax [3] is given as 0.823 µmol/mg/min and the Vmax ([1]; PNMT-SP, Table 5) is given as 0.823 µmol/mg/min.

`CCN1C(=O)C=CC1=O` [N-ethylmaleimide] showed a Ki [1, 5] of 4.92 ± 0.16 µM and a Ki [2, 6] of 1.04 ± 0.49 µM.

With `O=S(=O)(O)c1cc[c]([Hg][Cl])cc1` [p-chloromercuriphenylsulfonic acid, p-chloromercuriphenylsulfonic acid monosodium salt] the Ki [1] was 520 ± 190 µM and the Ki [2] was 120 ± 140 µM.

With methyl-dopa the IC50 ([2]; non-immobilized PNMT, n = 2, read-out: IC 50 PNMT) was 10.4 µM, the “concentration as low as which the PNMT-IMER is inhibited” value [4] was 1 µM and the IC50 [4] was 7.6 ± 0.2 µM.

For `Nc1ncnc2c1ncn2[C@@H]1O[C@H](CSCC[C@H](N)C(=O)O)[C@@H](O)[C@H]1O` [SAH, S-adenosyl-L-homocysteine], the IC50 [2] was 40.1 µM, the “concentration as low as which the PNMT-IMER is inhibited” value [4] was 5 µM and the IC50 [4] was 50.5 ± 1.5 µM.
